Experimental data from patent publication US12351580B2, “NLRP3 modulators” (Innate Tumor Immunity, Inc., priority 2017, dated 2025).

Biological target: T1, hNLRP3 (Homo sapiens, UniProt Q96P20)
T1 construct: THP-1 cells were purchased from the American Type Culture Collection; host or cells: THP-1 cells, PMA-differentiated
Assay: Measurement of IL-1β production in PMA-differentiated THP-1 cells (hNLRP3 agonist; ELISA, alternative and hTRF procedures)
Assay type: cell-based
Procedure: Measurement of IL-1β production in PMA-differentiated THP-1 cells THP-1 cells were purchased from the American Type Culture Collection and sub-cultured according to instructions from the supplier. Prior to experiments, cells were cultured in RPMI 1640 containing 10% heat inactivated FBS, penicillin (100 units/ml) and streptomycin (100 μg/ml), and maintained in log phase prior to experimental setup. Prior to the experiment THP-1 were treated with PMA (Phorbol 12-myristate 13-acetate) ([…]) for 24 hours. The day of the experiment the media was removed and attaching cells were treated with trypsin for 2 minutes, cells were then collected, washed with PBS (phosphate buffer saline), spin down, resuspended in 2% heat inactivated FBS with RPMI at a concentration of 1×10^6 cells/ml, and 100 μl was plated in a 96 well plate. Compounds were dissolved in dimethyl sulfoxide (DMSO) and added to the culture medium to achieve desired concentration (e.g. 100, 30, 10, 3, 1, 0.3 or 0.1 μM). Cells were incubated with compounds for 4 hours. Cell free supernatant was collected and the production of […] was evaluated by ELISA. A vehicle only control was run concurrently with each experiment. Final DMSO concentration was 1%.
Measurement of IL-1β Production in PMA-Differentiated THP-1 Cells (Alternative Procedure)
THP-1 cells were purchased from the American Type Culture Collection and sub-cultured according to instructions from the supplier. Prior to experiments, cells were cultured in RPMI 1640 containing 10% heat inactivated FBS, penicillin (100 units/ml), streptomycin (100 μg/ml), HEPES (10 mM) and sodium pyruvate (1 mM) and maintained in log phase prior to experimental setup. Prior to the experiment, THP-1 cells were treated with PMA (Phorbol 12-myristate 13-acetate) (20 μg/ml) overnight. The day of the experiment, the media was removed and attached cells were treated with trypsin for 2 minutes, cells were then collected, washed with PBS (phosphate buffer saline), pelleted by centrifugation and resuspended in 2% heat inactivated FBS with RPMI at a concentration of 50,000 cells/well in a 384 well plate. Cell free supernatant was collected and the production of IL-1β was evaluated by ELISA. Compounds were dissolved in dimethyl sulfoxide (DMSO) and added to the culture medium to achieve desired concentration (e.g. 100, 30, 10, 3, 1, 0.3 or 0.1 μM). Cells were incubated with compounds for 2 hours. A vehicle only control was run concurrently with each experiment. Final DMSO concentration was 1%.
Measurement of IL-1β Production—hTRF Protocol (Second Alternative Procedure)
Serial dilutions of compounds in DMSO were added to low volume 384 well plates at 100 nl/well using an ECHO 550 acoustic dispenser (Labcyte) to achieve final starting concentration of 10 μM in assay.
THP-1 cells in RPMI (Gibco, 11875) media with 10% FBS at a density of 1×10^6 cell/ml in a T175 flask were treated with a final concentration of phorbol 12-myristate 13-acetate (PMA) (Sigma, P1585) of 50 ng/ml overnight at 37° C. at 5% CO2 for differentiation. Cells were harvested the next day after rinsing well with dPBS using 0.5% trypsin. A cell solution was prepared of 1×10^6 cells/ml for 50,000 cells in 50 μl/well in RPMI media with 2% FBS. Cells were plated using a multichannel pipette onto the compound dilutions in Greiner, 384 well, black clear bottom tissue culture treated plates (781090). The plates were incubated in 37° C. incubator at 5% CO2 for 2 hours.
After the 2 hour incubation, the cell plates were spun in the centrifuge for 5 minutes at 1200 rpm. Using the Felix (CyBio), 8 μl of the supernatant was transferred to 384 well, low volume, white proxy plates. (Perkin Elmer, 6008230). A human IL1beta hTRF kit was used to analyze the supernatant (CISBIO, 62HIL1BPEG). The kit instructions were followed for preparing the IL1Beta standard curve and then the antibodies from the kit were diluted 1:40 rather than 1:20 as kit instructed.

T1 sequence (Q96P20 whole entry): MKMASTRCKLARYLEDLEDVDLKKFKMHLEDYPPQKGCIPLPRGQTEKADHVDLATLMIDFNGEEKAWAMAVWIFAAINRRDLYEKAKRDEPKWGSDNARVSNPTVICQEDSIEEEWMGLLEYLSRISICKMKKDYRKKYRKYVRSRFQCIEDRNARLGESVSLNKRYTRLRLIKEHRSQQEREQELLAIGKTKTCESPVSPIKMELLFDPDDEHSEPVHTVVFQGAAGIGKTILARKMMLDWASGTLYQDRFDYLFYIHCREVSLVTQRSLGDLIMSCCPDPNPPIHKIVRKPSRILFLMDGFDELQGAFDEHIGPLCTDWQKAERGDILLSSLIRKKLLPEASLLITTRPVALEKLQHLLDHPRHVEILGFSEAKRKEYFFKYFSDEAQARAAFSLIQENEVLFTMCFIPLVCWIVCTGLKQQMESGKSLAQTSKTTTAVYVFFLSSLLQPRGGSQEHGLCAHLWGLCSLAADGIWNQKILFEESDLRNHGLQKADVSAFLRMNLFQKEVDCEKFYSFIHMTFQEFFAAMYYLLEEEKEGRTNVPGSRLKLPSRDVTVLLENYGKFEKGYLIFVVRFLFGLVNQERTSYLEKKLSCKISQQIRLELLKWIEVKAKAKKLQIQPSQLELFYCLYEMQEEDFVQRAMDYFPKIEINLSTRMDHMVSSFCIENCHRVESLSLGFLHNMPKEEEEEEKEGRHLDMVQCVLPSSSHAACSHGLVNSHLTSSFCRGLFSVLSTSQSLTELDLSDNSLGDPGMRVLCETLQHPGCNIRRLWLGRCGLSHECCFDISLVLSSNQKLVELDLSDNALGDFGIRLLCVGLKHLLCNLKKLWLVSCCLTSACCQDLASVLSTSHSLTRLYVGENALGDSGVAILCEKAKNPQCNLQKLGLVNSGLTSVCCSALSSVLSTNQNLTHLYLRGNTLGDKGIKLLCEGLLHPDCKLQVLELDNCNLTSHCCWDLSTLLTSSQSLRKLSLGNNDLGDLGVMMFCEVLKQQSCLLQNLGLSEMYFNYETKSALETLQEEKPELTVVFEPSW

Row | SMILES | EC50
1 | CCN(Cc1nc2c(N)nc3cc(C4CC4)ccc3c2n1Cc1ccc(OC)cc1)C(C)=O [Compound 190] | 10.3 µM
2 | COc1cccc(-c2ccc3c(c2)nc(N)c2nc(CN4CCCC4=O)[nH]c23)c1 [Compound 287, 1-[[4-amino-7-(3-methoxyphenyl)-1H-imidazo[4,5-c]quinolin-2-yl]methyl]pyrrolidin-2-one] | 1.08 µM
3 | CCN(Cc1nc2c(N)nc3cc(C(F)(F)F)ccc3c2n1CCCC(=O)OC)C(C)=O [Compound 229] | 12.3 µM
4 | CCN(Cc1nc2c(N)nc3cc(C4=CCCC4)ccc3c2[nH]1)C(C)=O [Compound 183] | 0.52 µM
5 | CCOC(=O)c1cc2c(cc1Br)nc(N)c1nc(CN(CC)C(C)=O)[nH]c12 [Compound 198] | 24.2 µM
6 | CCN(Cc1nc2c(N)nc3ccc(Br)cc3c2[nH]1)S(C)(=O)=O [Compound 201] | 20.8 µM
7 | CCN(Cc1nc2c(N)nc3cc(Cl)ccc3c2n1CCCC(=O)N1CCCC1)C(C)=O [Compound 222] | 42 µM
8 | CCN(Cc1nc2c(N)nc3ccc(Br)cc3c2[nH]1)C(C)=O [Compound 194] | 7.9 µM
9 | CCN(Cc1nc2c(N)nc3ccccc3c2n1CCCC(=O)OC)C(C)=O [Compound 164] | 4.6 µM
10 | CCN(Cc1nc2c(N)nc3ccccc3c2n1CCC(=O)N1CCS(=O)(=O)CC1)C(=O)OC(C)(C)C [Compound 223] | 77 µM
11 | CN(C)C(=O)CCCn1c(CN2CCCC2=O)nc2c(N)nc3cc(Br)ccc3c21 [Compound 215] | 18.2 µM
12 | Nc1nc2cc(C3CCOCC3)ccc2c2[nH]c(CN3CCCC3=O)nc12 [Compound 298, 1-[[4-amino-7-(oxan-4-yl)-1H-imidazo[4,5-c]quinolin-2-yl]methyl]pyrrolidin-2-one] | 21 µM
13 | Nc1nc2cc(-n3cccn3)ccc2c2[nH]c(CN3CCCC3=O)nc12 [Compound 295, 1-[(4-amino-7-pyrazol-1-yl-1H-imidazo[4,5-c]quinolin-2-yl)methyl]pyrrolidin-2-one] | 1.2 µM
14 | CCc1ccc2c(c1)nc(N)c1nc(CN(CC)C(C)=O)[nH]c12 [Compound 171, N-[(4-amino-7-ethyl-1H-imidazo[4,5-c]quinolin-2-yl)methyl]-N-ethylacetamide] | 3.2 µM
15 | CC(c1nc2c(N)nc3cc(Br)ccc3c2[nH]1)N1CCCC1=O (stereo not drawn) [Compound 303, 1-[1-(4-amino-7-bromo-1H-imidazo[4,5-c]quinolin-2-yl)ethyl]pyrrolidin-2-one] | 11.1 µM
16 | CCN(Cc1nc2c(N)nc3ccccc3c2n1CCC(=O)N1CCN(C(=O)OC(C)(C)C)CC1)C(C)=O [Compound 212] | 85 µM
17 | CCN(Cc1nc2c(N)nc3ccccc3c2n1CCC(=O)N1CCOCC1)C(=O)OC(C)(C)C [Compound 205] | 36 µM
18 | Nc1nc2ccccc2c2[nH]c(CN3CCCC3=O)nc12 [Compound 278] | 10.8 µM
19 | COc1ccc(-c2ccc3c(c2)nc(N)c2nc(CN4CCCC4=O)[nH]c23)cc1 [Compound 230] | 4.5 µM
20 | CCN(Cc1nc2c(N)nc3cc(C)ccc3c2[nH]1)C(C)=O [Compound 104] | 0.6 µM
21 | CCN(Cc1nc2c(N)nc3cc(-n4cccn4)ccc3c2[nH]1)S(C)(=O)=O [Compound 108, N-((4-Amino-7-(1H-pyrazol-1-yl)-1H-imidazo[4,5-c]quinolin-2-yl)methyl)-N-ethylmethanesulfonamide] | 0.87 µM
22 | CCN(Cc1nc2c(N)nc3cc(-c4ccncc4)ccc3c2[nH]1)C(C)=O [Compound 167, N-[(4-amino-7-pyridin-4-yl-1H-imidazo[4,5-c]quinolin-2-yl)methyl]-N-ethylacetamide] | 58 µM
23 | CCN(Cc1nc2c(N)nc3cc(Cl)ccc3c2[nH]1)C(C)=O [Compound 179, N-[(4-amino-7-chloro-1H-imidazo[4,5-c]quinolin-2-yl)methyl]-N-ethylacetamide] | 12.5 µM
24 | CCN(Cc1nc2c(N)nc3ccc(Cl)cc3c2[nH]1)C(C)=O [Compound 197] | 13.7 µM
